# Experimental data published in patent publication US10626103B2, “Inhibitor of lysine specific demethylase-1” (CELGENE QUANTICEL RESEARCH, INC., priority 2014, dated 2020).
# Tests used:
# full-length human LSD1 = full-length human LSD1 (Homo sapiens (Human), UniProt O60341); assay: In vitro enzyme inhibition assay LSD-1 (TR-FRET); type: biochemical; settings: H3K4me1-biotin peptide
# Summary of the method: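 Demethylase activity of full-length human LSD1 was detected by TR-FRET after 1 hour incubation at room temperature. Excitation was at 320 nm, with emission at 615 nm and 665 nm. IC50 values were derived from the inhibition data.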
# [1] = test system: Kasumi-1 AML cancer cell line; assay: Kasumi-1 AML cell line proliferation assay (Cell-MTS assay); type: cell-based; settings: Homo sapiens, Kasumi-1 cells, 168 hours
# Source text: Colorimetric cellular assay to assess the ability of LSD-1 small molecule inhibitors to effect the proliferation of the established AML cancer cell line Kasumi-1.
# This Cell-MTS assay is a 7-day plate based colorimetric assay which quantifies the amount of newly generated NADH in the presence and absence of test compound. These NADH levels are used as a proxy for the quantification of cancer cell proliferation.
# The established cancer cell line Kasumi-1 with a verified p53 mutation were purchased from American Type Culture Collection (ATCC) and routinely passaged according to ATCC published protocols. For routine assay these cells were seeded at a density of 20,000 cells per 96-well. 24 hours after plating, cells received an 11 point dilution of test compound with final concentration ranges from 100 LM to 2.0 nM. Cells are incubated in the presence of compound for 168 hours at 37° C., 5% CO2. At the end of this compound incubation period, 80 μl of media is removed and 20 μL of CellTiter 96® AQueous Non-Radioactive Cell Proliferation Assay solution (Promega) is added. The cells are incubated until the OD490 is >0.6. IC50 values are calculated using the IDBS XLfit software package and include background subtracted OD490 values and normalization to DMSO controls.
# Table 5 provides the Kasumi-1 cellular IC50 values of various substituted heterocyclic compounds disclosed herein.
# [2] = test system: CD11b expression in THP-1 (AML) cells; assay: LSD1 CD11b cellular assay (flow cytometry); type: cell-based; settings: Homo sapiens, 96 h, THP-1 cells, 4 days
# Summary of the method: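 THP-1 cells were exposed to serially diluted compounds (0.2% DMSO final) for 4 days at 37 °C. CD11b expression was measured by flow cytometry with DAPI staining. The percent of CD11b-positive cells per concentration gave the IC50 curve.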
SMILES,IC50 (full-length human LSD1),IC50 [1],IC50 [2]
"CN[C@@H]1CCCN(C(=O)c2nc(-c3ccc(C#N)c(F)c3)n(-c3ccc(OC)cc3)c2C)C1 [Example 70, 2-Fluoro-4-[1-(4-methoxyphenyl)-5-methyl-4-[(3R)-3-(methylamino)piperidine-1-carbonyl]imidazol-2-yl]benzonitrile]",< 100 nM,≤ 100 nM,< 100 nM
"COc1ccc(-n2c(-c3ccc(C#N)c(F)c3)nc(C(=O)N3CCC[C@@H](N)C3)c2F)cc1F [Example 67, 4-[4-[(3R)-3-Aminopiperidine-1-carbonyl]-5-fluoro-1-(3-fluoro-4-methoxyphenyl)imidazol-2-yl]-2-fluorobenzonitrile]",< 100 nM,≤ 100 nM,< 100 nM
"Cc1c(C(=O)N2CC[C@H](N(C)C)C2)nc(-c2ccc(C#N)c(F)c2)n1-c1ccc2nn(C)cc2c1 [Example 94, 4-[4-[(3S)-3-(Dimethylamino)pyrrolidine-1-carbonyl]-5-methyl-1-(2-methylindazol-5-yl)imidazol-2-yl]-2-fluorobenzonitrile]",,≤ 100 nM,
"COc1ccc(-n2c(-c3ccc(C#N)c(F)c3)nc(C(=O)N3CC[C@H](N)C3)c2C)cc1 [Example 14, 4-[4-[(3S)-3-aminopyrrolidine-1-carbonyl]-1-(4-methoxyphenyl)-5-methylimidazol-2-yl]-2-fluorobenzonitrile]",< 100 nM,≤ 100 nM,< 100 nM
"COc1ccc(-n2c(-c3ccc(C#N)c(F)c3)nc(C(=O)N3CC(CN)C3)c2C)cc1F [Example 88, 4-[4-[3-(Aminomethyl)azetidine-1-carbonyl]-1-(3-fluoro-4-methoxyphenyl)-5-methylimidazol-2-yl]-2-fluorobenzonitrile]",,≤ 100 nM,
"COc1ccc(-n2c(-c3ccc(C#N)c(F)c3)nc(C(=O)N3CCC[C@@H](N)C3)c2C)cc1F [Example 16, 4-[4-[(3R)-3-aminopiperidine-1-carbonyl]-1-(3-fluoro-4-methoxyphenyl)-5-methylimidazol-2-yl]-2-fluorobenzonitrile]",,≤ 100 nM,
"CN[C@H]1CCN(C(=O)c2nc(-c3ccc(C#N)c(F)c3)n(-c3ccc(OC)c(F)c3)c2C)C1 [Example 64, 2-Fluoro-4-[1-(3-fluoro-4-methoxyphenyl)-5-methyl-4-[(3S)-3-(methylamino)pyrrolidine-1-carbonyl]imidazol-2-yl]benzonitrile]",< 100 nM,≤ 100 nM,< 100 nM
"COc1ccc(-n2c(-c3ccc(C#N)c(F)c3)nc(C(=O)N3CC[C@H](N)C3)c2C)cc1F [Example 18, 4-[4-[(3S)-3-aminopyrrolidine-1-carbonyl]-1-(3-fluoro-4-methoxyphenyl)-5-methylimidazol-2-yl]-2-fluorobenzonitrile]",,≤ 100 nM,
"CN[C@@H]1CCCN(C(=O)c2nc(-c3ccc(C#N)c(F)c3)n(-c3ccc(OC)cc3)c2F)C1 [Example 74, 2-Fluoro-4-[5-fluoro-1-(4-methoxyphenyl)-4-[(3R)-3-(methylamino)piperidine-1-carbonyl]imidazol-2-yl]benzonitrile]",< 100 nM,,< 100 nM
"CN(C)[C@H]1CCN(C(=O)c2cn(-c3ccc4nn(C)cc4c3)c(-c3ccc(C#N)c(F)c3)n2)C1 [Example 99, 4-[4-[(3S)-3-(Dimethylamino)pyrrolidine-1-carbonyl]-1-(2-methylindazol-5-yl)imidazol-2-yl]-2-fluorobenzonitrile]",< 100 nM,,100 to 1000 nM
"COc1ccc(-n2c(-c3ccc(C#N)c(F)c3)nc(C(=O)N3CCC[C@@H](N)C3)c2C)cc1 [Example 12, 4-[4-[(3R)-3-aminopiperidine-1-carbonyl]-1-(4-methoxyphenyl)-5-methylimidazol-2-yl]-2-fluorobenzonitrile]",,≤ 100 nM,
"CN[C@H]1CCN(C(=O)c2nc(-c3ccc(C#N)c(F)c3)n(-c3ccc(OC)cc3)c2F)C1 [Example 73, 2-Fluoro-4-[5-fluoro-1-(4-methoxyphenyl)-4-[(3S)-3-(methylamino)pyrrolidine-1-carbonyl]imidazol-2-yl]benzonitrile]",< 100 nM,,< 100 nM
"CN(CCN)C(=O)c1cc(-c2ccc(C#N)c(F)c2)c(-c2ccc3nn(C)cc3c2)n1C [Example 31, N-(2-aminoethyl)[4-(4-cyano-3-fluorophenyl)-1-methyl-5-(2-methyl(2H-indazol-5-yl))pyrrol-2-yl]-N-methylcarboxamide]",< 100 nM,,< 100 nM

# Other lines, results leading:
IC50 (full-length human LSD1),IC50 [1],IC50 [2],SMILES
< 100 nM,≤ 100 nM,< 100 nM,"Cc1c(C(=O)N2CC[C@H](N(C)C)C2)nc(-c2ccc(C#N)c(F)c2)n1-c1ccc2nn(C)c(Cl)c2c1 [Example 96, 4-[1-(3-Chloro-2-methylindazol-5-yl)-4-[(3S)-3-(dimethylamino)pyrrolidine-1-carbonyl]-5-methylimidazol-2-yl]-2-fluorobenzonitrile]"
< 100 nM,≤ 100 nM,< 100 nM,"Cn1nc2ccc(-n3c(-c4ccc(C#N)c(F)c4)nc(C(=O)N4CCC[C@@H](N)C4)c3Cl)cc2c1Cl [Example 76, 4-[4-[(3R)-3-Aminopiperidine-1-carbonyl]-5-chloro-1-(3-chloro-2-methylindazol-5-yl)imidazol-2-yl]-2-fluorobenzonitrile]"
< 100 nM,,< 100 nM,"Cc1c(C(=O)N[C@@H]2CCCNC2)nc(-c2ccc(C#N)c(F)c2)n1-c1ccc2nn(C)c(Cl)c2c1 [Example 117, 1-(3-Chloro-2-methylindazol-5-yl)-2-(4-cyano-3-fluorophenyl)-5-methyl-N-[(3R)-piperidin-3-yl]imidazole-4-carboxamide]"
< 100 nM,,< 100 nM,"Cn1cc2cc(-c3c(-c4ccc(C#N)c(F)c4)cc(C(=O)N[C@@H]4CCNC4)n3C)ccc2n1 [Example 30, N-((3R)pyrrolidin-3-yl)[4-(4-cyano-3-fluorophenyl)-1-methyl-5-(2-methyl(2H-indazol-5-yl))pyrrol-2-yl]carboxamide]"
< 100 nM,,100 to 1000 nM,"Cc1c(C(=O)N2CCC3(CCN3)C2)nc(-c2ccc(C#N)c(F)c2)n1-c1ccc2c(cnn2C)c1 (centres unmarked) [Example 92, 4-[4-(1,7-Diazaspiro[3.4]octane-7-carbonyl)-5-methyl-1-(1-methylindazol-5-yl)imidazol-2-yl]-2-fluorobenzonitrile]"
< 100 nM,,< 100 nM,"CN[C@@H]1CCCN(C(=O)c2nc(-c3ccc(C#N)c(F)c3)n(-c3ccc4nn(C)c(C)c4c3)c2C)C1 [Example 105, 4-[1-(2,3-Dimethylindazol-5-yl)-5-methyl-4-[(3R)-3-(methylamino)piperidine-1-carbonyl]imidazol-2-yl]-2-fluorobenzonitrile]"
< 100 nM,,< 100 nM,"Cc1c(C(=O)NC2CCNC2)nc(-c2ccc(C#N)c(F)c2)n1-c1ccc2nn(C)cc2c1 (centres unmarked) [Example 46, 2-(4-Cyano-3-fluorophenyl)-5-methyl-1-(2-methylindazol-5-yl)-N-pyrrolidin-3-ylimidazole-4-carboxamide]"
